# Test results: paper PMC5374982 (Biochemistry, 2016)
# Read-outs that look alike come from different tables or passages of the source.
# Assays:
# Experiment in all cases: 1H–[…] HSQC NMR chemical shift titration
# Type in all cases: binding
# xylanase B2 (XlnB2) = xylanase B2 (XlnB2) (Streptomyces lividans, UniProt P26515)
# XlnB2-E87A [1] = molecular target: T1, XlnB2-E87A (Streptomyces lividans, UniProt P26515, E128A)
# XlnB2-E87A [2] = molecular target: T1, XlnB2-E87A; remark: listed apart in the source
SMILES,Kd (xylanase B2 (XlnB2)),Kd (XlnB2-E87A [1]),Kd (XlnB2-E87A [2])
"OC1OC[C@@H](O[C@@H]2OC[C@@H](O)[C@H](O)[C@H]2O)[C@H](O)[C@H]1O (stereo partly drawn) [X2, xylobiose]",7.07 mM,8.71 mM,–
"OC1OC[C@@H](O[C@@H]2OC[C@@H](O[C@@H]3OC[C@@H](O[C@@H]4OC[C@@H](O[C@@H]5OC[C@@H](O)[C@H](O)[C@H]5O)[C@H](O)[C@H]4O)[C@H](O)[C@H]3O)[C@H](O)[C@H]2O)[C@H](O)[C@H]1O (stereo partly drawn) [X5, xylopentaose]",–,–,7.93 mM
